Test results from article PMC8694318, “Discovery of pyrano[2,3-d]pyrimidine-2,4-dione derivatives as novel PARP-1 inhibitors: design, synthesis and antitumor activity” (RSC Advances, 2021).
Like-named read-outs stand apart in the source and are kept apart here.

Key:
[1] = biological target: T1, PARP-1 (Homo sapiens, UniProt P09874); experiment: In vitro PARP-1 inhibitory assay (colorimetric 96-well kit, BPS Bioscience); assay type: biochemical
T1 construct: purchased BPS Bioscience 80580
Method: Briefly, the histone mixture was diluted 1 : 5 with 1× PBS, 50 μl of histone solution was added to each well and incubated at 4 °C overnight. The plate was washed three times using 200 μl PBST buffer (1× PBS containing 0.05% Tween-20) per well. Liquid was removed from the wells by tapping the strip wells on clean paper towels. To each well, 200 μl of blocking buffer was added, followed by 60–90 min incubation at room temperature. Then 25 μl of PARP master mixture (consisting of 2.5 μl 10× PARP buffer + 2.5 μl 10× PARP assay mixture + 5 μl activated DNA + 15 μl distilled water) was added to each well. Olaparib was used as a positive control. 5 μl of inhibitor solution of each well labeled as “test inhibitor” was added. For the “positive control” and “blank”, 5 μl of the same solution without inhibitor was added. 1× PARP buffer was prepared by adding 1 part of 10× PARP buffer to 9 parts H2O (v/v), 20 μl of 1× PARP buffer was added to the wells designated as “blank”. The amount of PARP-1 required for the assay was then calculated. The reaction was initiated by adding 20 μl of diluted PARP1 enzyme to the wells designated “positive control” and “test inhibitor control”. The strip wells were incubated at room temperature for 1 hour. The strip wells were then washed three times with 200 μl PBST buffer. Then, 50 μl of 50 times diluted Streptavidin-HRP with blocking buffer was added to each well, and the strips were further incubated at room temperature for 30 min. After washing the wells three times with 200 μl PBST buffer, HRP colorimetric substrate was added to each well and the plate was incubated at the room temperature until a blue color is developed in the positive control well. Then reaction was quenched with […] per well of 2 M sulfuric acid, and absorbance at 450 nm was determined. Carrier solvents were assayed as negative controls. All assays were performed in triplicate. To determine the IC50 value for each inhibitor, the average absorbance of each inhibitor concentration was plotted against the log of the concentration of each respective inhibitor and the IC50 value for each plot was obtained using computer-assisted non-linear regression analyses. Data presented are the results of at least two independent experiments done in triplicate. The results of these studies are presented as mean IC50 (nM).[24]

[2] = system: MCF-7 cells; experiment: Cell proliferation inhibition (MTT) assay, MCF-7; assay type: cell-based; conditions: Homo sapiens, MCF7, 96 h incubation
Method: (§1) We used the MTT [3-(4,5-dimethylthiazol-2-yl)-2,5-diphenyltetrazoliumbromide] (Biomatik, Wilmington, DE) assay to measure cell growth inhibition, which is based on the conversion of MTT to formazan crystals by mitochondrial dehydrogenases.[25] Only in live cells, mitochondrial enzymes can transform MTT into insoluble formazan. After incubated with serially diluted inhibitors for 96 h, cell cultures were incubated with MTT solution (5 mg ml^−1) for 4 h at 37 °C. Then discard the medium and DMSO was added to solubilize the reaction product formazan by shaking for 10 min. Absorbance at 492 nm was measured with a microplate reader (Thermo, MK3). Cell viability was expressed as an IC50 value.

[3] = system: HCT116 cells; experiment: Cell proliferation inhibition (MTT) assay, HCT116; assay type: cell-based; conditions: Homo sapiens, HCT-116, 96 h incubation
Method: as §1

[4] = colorimetric assay, mean of at least two independent experiments in triplicate, read-out: IC50 against PARP-1 (converted)

T1 sequence (P09874 whole entry): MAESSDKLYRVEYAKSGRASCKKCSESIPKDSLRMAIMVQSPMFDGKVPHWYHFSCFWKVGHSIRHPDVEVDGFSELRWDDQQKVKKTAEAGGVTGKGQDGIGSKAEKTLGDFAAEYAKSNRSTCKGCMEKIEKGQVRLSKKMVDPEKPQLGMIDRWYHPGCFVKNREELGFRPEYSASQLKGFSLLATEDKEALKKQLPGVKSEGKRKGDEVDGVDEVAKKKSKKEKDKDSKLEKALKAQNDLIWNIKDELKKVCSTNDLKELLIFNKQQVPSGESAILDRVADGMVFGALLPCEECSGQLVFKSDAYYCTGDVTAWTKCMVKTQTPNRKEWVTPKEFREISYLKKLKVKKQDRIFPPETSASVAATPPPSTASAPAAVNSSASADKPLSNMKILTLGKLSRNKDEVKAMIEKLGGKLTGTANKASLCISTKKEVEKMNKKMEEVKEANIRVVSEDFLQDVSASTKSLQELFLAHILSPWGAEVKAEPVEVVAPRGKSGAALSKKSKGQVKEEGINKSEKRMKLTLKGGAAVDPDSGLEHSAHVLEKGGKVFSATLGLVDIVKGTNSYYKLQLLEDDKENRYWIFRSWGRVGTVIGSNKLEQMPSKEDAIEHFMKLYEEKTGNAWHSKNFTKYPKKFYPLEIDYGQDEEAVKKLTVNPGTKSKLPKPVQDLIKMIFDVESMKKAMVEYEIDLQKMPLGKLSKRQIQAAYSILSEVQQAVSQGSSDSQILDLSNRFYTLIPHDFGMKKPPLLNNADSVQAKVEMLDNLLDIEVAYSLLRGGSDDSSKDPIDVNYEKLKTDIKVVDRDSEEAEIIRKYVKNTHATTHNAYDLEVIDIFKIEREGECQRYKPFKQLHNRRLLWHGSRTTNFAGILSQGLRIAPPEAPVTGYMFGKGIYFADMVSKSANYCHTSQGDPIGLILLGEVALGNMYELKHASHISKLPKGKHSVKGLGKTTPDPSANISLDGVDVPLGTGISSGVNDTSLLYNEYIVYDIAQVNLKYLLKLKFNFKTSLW

IC50 [1, 4] [µM] | IC50 [2] [µM] | IC50 [3] [µM] | IC50 ([1]; read-out: IC50 against PARP-1 (converted)) [µM] | Structure (SMILES) | IC50 [1] [µM]
0.0491 ± 0.00232 | 12.68 ± 0.12 | 24.1 ± 1.14 |  | N#CC1=C(N)Oc2[nH]c(=O)[nH]c(=O)c2C1c1cccs1 (centres unmarked) [Compound S1, 7-amino-2,4-dioxo-5-(thiophen-2-yl)-2,3,4,5-tetrahydro-1H-pyrano[2,3-d]pyrimidine-6-carbonitrile] | 
0.00406 ± 0.00018 | 2.65 ± 0.05 | 9.31 ± 0.34 |  | Nc1nc(S)nc2c1Oc1[nH]c(=O)[nH]c(=O)c1C2c1cccs1 (centres unmarked) [Compound S2, 4-amino-2-mercapto-10-(thiophen-2-yl)-6,10-dihydro-7H-pyrano[2,3-d:5,6-d']dipyrimidine-7,9(8H)-dione] | 
0.0149 ± 0.00103 | 0.87 ± 0.07 | 6.38 ± 0.11 | 0.0151 | Nc1ncnc2c1Oc1[nH]c(=O)[nH]c(=O)c1C2c1cccs1 (centres unmarked) [Compound S4, 4-amino-10-(thiophen-2-yl)-6,10-dihydro-7H-pyrano[2,3-d:5,6-d']dipyrimidine-7,9(8H)-dione] | 
0.0111 ± 0.00076 | 4.95 ± 0.07 | 7.41 ± 0.18 |  | O=c1[nH]c2c(c(=O)[nH]1)C(c1cccs1)c1[nH]c(=S)[nH]c(=S)c1O2 (centres unmarked) [Compound S5, 10-(thiophen-2-yl)-2,4-dithioxo-1,2,3,4,6,10-hexahydro-7H-pyrano[2,3-d:5,6-d']dipyrimidine-7,9(8H)-dione] | 
0.115 ± 0.00722 | 3.12 ± 0.11 | 2.85 ± 0.03 |  | CONC1=C(C#N)Oc2[nH]c(=O)[nH]c(=O)c2C1c1cccs1 (centres unmarked) [Compound S6, 6-(methoxyamino)-2,4-dioxo-5-(thiophen-2-yl)-2,3,4,5-tetrahydro-1H-pyrano[2,3-d]pyrimidine-7-carbonitrile] | 
0.0162 ± 0.00088 | 4.48 ± 0.43 | 12.1 ± 0.64 |  | Cc1nc(O)c2c(n1)Oc1[nH]c(=O)[nH]c(=O)c1C2c1cccs1 (centres unmarked) [Compound S10, 6-hydroxy-8-methyl-5-(thiophen-2-yl)-1,5-dihydro-2H-pyrano[2,3-d:6,5-d']dipyrimidine-2,4(3H)-dione] | 

The next lines start with the compound.

Structure (SMILES) | IC50 [1, 4] [µM] | IC50 [2] [µM] | IC50 [3] [µM] | IC50 ([1]; read-out: IC50 against PARP-1 (converted)) [µM] | IC50 [1] [µM]
Nc1nn(-c2cc([N+](=O)[O-])ccc2[N+](=O)[O-])c2c1Oc1[nH]c(=O)[nH]c(=O)c1C2c1cccs1 (centres unmarked) [Compound S3, 3-amino-1-(2,5-dinitrophenyl)-9-(thiophen-2-yl)-5,9-dihydropyrazolo[3′,4':5,6]pyrano[2,3-d]pyrimidine-6,8(1H,7H)-dione] |  | 3.17 ± 1.04 | 2.8 ± 0.07 |  | 0.0714 ± 0.00412
O=c1[nH]c2c(c(=O)[nH]1)C(c1cccs1)c1[nH]c(=S)n(-c3ccccc3)c(=O)c1O2 (centres unmarked) [Compound S7, 3-phenyl-10-(thiophen-2-yl)-2-thioxo-2,3,6,10-tetrahydro-1H-pyrano[2,3-d:5,6-d']dipyrimidine-4,7,9(8H)-trione] | 0.00361 ± 0.00015 | 1.28 ± 1.12 | 46.9 ± 1.82 |  | 
NC1=CC(c2ccc([N+](=O)[O-])cc2)=NC2Oc3[nH]c(=O)[nH]c(=O)c3C(c3cccs3)C12 (centres unmarked) [Compound S8, 6-amino-8-(4-nitrophenyl)-5-(thiophen-2-yl)-1,5,5a,9a-tetrahydro-2H-pyrido[3′,2':5,6]pyrano[2,3-d]pyrimidine-2,4(3H)-dione] | 0.0158 ± 0.00086 | 0.66 ± 0.05 | 2.76 ± 0.06 |  | 
CCO/C=N/C1=C(C#N)C(c2cccs2)c2c([nH]c(=O)[nH]c2=O)O1 (centres unmarked) [Compound S9, (E)-ethyl N-(6-cyano-2,4-dioxo-5-(thiophen-2-yl)-2,3,4,5-tetrahydro-1H-pyrano[2,3-d]pyrimidin-7-yl)formimidate] | 0.0485 ± 0.00325 | 8.77 ± 0.15 | 2.9 ± 0.04 |  | 
CN[C@@H]1C[C@H]2O[C@@](C)([C@@H]1OC)n1c3ccccc3c3c4c(c5c6ccccc6n2c5c31)C(=O)NC4 [Staurosporine, reference compound] |  |  | 6.94 ± 0.21 |  | 
